Tests used:
Assay type in all cases: functional
BT-549 = experiment: Growth inhibition of human BT549 cells assessed as cell growth at 5X10'-5 M after 48 hrs by sulforhodamine B assay; conditions: BT-549, 48 h, read-out: Activity
SNB-75 = experiment: Growth inhibition of human SNB75 cells assessed as cell growth at 5X10'-6 M after 48 hrs by sulforhodamine B assay; conditions: SNB-75, 48 h, read-out: Activity
SF-268 = experiment: Growth inhibition of human SF268 cells assessed as cell growth at 5X10'-6 M after 48 hrs by sulforhodamine B assay; conditions: SF-268, 48 h, read-out: Activity
MCF7 = experiment: Growth inhibition of human MCF7 cells assessed as cell growth at 5X10'-8 M after 48 hrs by sulforhodamine B assay; conditions: MCF7, 48 h, read-out: Activity
OVCAR-4 = experiment: Growth inhibition of human OVCAR4 cells assessed as cell growth at 5X10'-7 M after 48 hrs by sulforhodamine B assay; conditions: OVCAR-4, 48 h, read-out: Activity
OVCAR-5 = experiment: Growth inhibition of human OVCAR5 cells assessed as cell growth at 5X10'-8 M after 48 hrs by sulforhodamine B assay; conditions: OVCAR-5, 48 h, read-out: Activity
CAKI-1 = experiment: Growth inhibition of human CAKI-1 cells assessed as cell growth at 5X10'-7 M after 48 hrs by sulforhodamine B assay; conditions: CAKI-1, 48 h, read-out: Activity
IGROV-1 = experiment: Growth inhibition of human IGROV1 cells assessed as cell growth at 5X10'-5 M after 48 hrs by sulforhodamine B assay; conditions: IGROV-1, 48 h, read-out: Activity

SMILES | growth at 50 µM (BT-549) | growth at 5 µM (SNB-75) | growth at 5 µM (SF-268) | growth at 0.05 µM (MCF7) | growth at 0.5 µM (OVCAR-4) | growth at 0.05 µM (OVCAR-5) | growth at 0.5 µM (CAKI-1) | growth at 50 µM (IGROV-1)
COc1cc(-c2nn(-c3cccc(NC(=O)Nc4cccc(C(F)(F)F)c4)c3)cc2-c2ccncc2)ccc1Cl | -26% | -4% | 1% | 93% | 73% | 86% | 79% | -43%
COc1cc(-c2nn(-c3cccc(NC(=O)c4cccc(C(F)(F)F)c4)c3)cc2-c2ccncc2)ccc1Cl | -1% | -2% | 28% | 90% | 81% | 90% | 90% | 5%
